How the values were obtained:
[1] = system: adcyap1-expressing neurons in the PMp; assay: Gonadectomy and sex steroid treatment, in situ hybridization of adcyap1 in PMp; assay type: in vivo, medaka (Oryzias latipes); conditions: 100 ng ml^-1 in water, 6 days; for number of adcyap1-expressing neurons in PMp: castrated (CX) males
Description: (§1) Fig. 4 Sex-biased expression of adcyap1 and vip in the POA is established by ovarian estrogen. a Levels of adcyap1 and vip expression in the brain of sex-reversed XX males and XY females versus typical XY males and XX females (n = 8 per group). b Number of adcyap1- and vip-expressing neurons in the PMp of sex-reversed XX males and XY females (n = 5 per group). c Representative micrographs showing adcyap1 and vip expression in the PMp of sex-reversed XX males and XY females. Scale bars represent 50 μm. d Number of adcyap1- and vip-expressing neurons in the PMp of sham-operated (sham) males and castrated males exposed to vehicle alone (CX), 11-ketotestosterone (CX + KT), or estradiol-17β (CX + E2) (n = 5 per group, except CX + E2 for adcyap1 and CX + KT for vip, where n = 4). e Representative micrographs showing adcyap1 and vip expression in the PMp of sham, CX, CX + KT, and CX + E2 males. Scale bars represent 50 μm. f Number of adcyap1- and vip-expressing neurons in the PMp of sham females and ovariectomized females exposed to vehicle alone (OVX), KT (OVX + KT), or E2 (OVX + E2) (n = 5 per group). g Representative micrographs showing adcyap1 and vip expression in the PMp of sham, OVX, OVX + KT, and OVX + E2 females. Scale bars represent 50 μm. Quantitative data were expressed as means with error bars representing standard error of the mean. Statistical differences were assessed by Bonferroni’s post-hoc test (a, d, f) and unpaired t-test (b). *p < 0.05; **p < 0.01; ***p < 0.001.
(§2) For both males and females, the gonad was removed under 0.02% tricaine methane sulfonate anesthesia (Sigma–Aldrich, St. Louis, MO, USA) through a small incision in the ventrolateral abdominal wall. Immediately after removal of the gonad, the incision was sutured with nylon thread. Sham-operated fish underwent the same surgical treatment as gonadectomized fish except for gonad removal. After a recovery period of 3 days in saline (0.9% (w v^−1) NaCl), gonadectomized fish were immersed in water containing 100 ng ml^−1 of KT (Cosmo Bio, Tokyo, Japan) or E2 (Fujifilm Wako Pure Chemical Corporation), or vehicle (ethanol) alone for 6 days and then sampled. Sham-operated fish were treated with vehicle alone and used as controls. The sex steroid concentration used was based on previously reported serum steroid levels in medaka.
(§3) The procedure for single-label in situ hybridization has been described elsewhere. In brief, the brain and pituitary were fixed in 4% paraformaldehyde (PFA) and embedded in paraffin. Serial coronal sections of 10 μm thickness were cut and hybridized with each of the six DIG-labeled Adcyap1/Vip receptor probes described above and the DIG-labeled adcyap1 and vip probes used for northern blot analysis. Hybridization signals were visualized by using alkaline phosphatase-conjugated anti-DIG antibody and 5-bromo-4-chloro-3-indolyl phosphate/nitro blue tetrazolium (BCIP/NBT) substrate (Roche Diagnostics). Color development was allowed to proceed for more than 9 h or was stopped after 1.5 h to avoid saturation (for quantification of vip expression after gonadectomy and sex steroid replacement). All sections in each comparison were processed simultaneously under the same conditions.
(§4) To obtain quantitative data, the number of neurons positive for a hybridization signal was counted manually in each brain nucleus. In some brain regions, these neurons were continuously distributed across two or more nuclei such that it was difficult to count the number of the neurons separately in each nucleus. In this case, the total number of the neurons in the nuclei was counted. For the pituitary and nuclei where these neurons were tightly clustered and their exact number could not be determined, sections were photographed and converted to black and white binary images by thresholding using Adobe Photoshop (ver. 22; Adobe Systems, San Jose, CA, USA). […]

[2] = system: vip-expressing neurons in the PMp; assay: Gonadectomy and sex steroid treatment, in situ hybridization of vip in PMp; assay type: in vivo, medaka (Oryzias latipes); conditions: 100 ng ml^-1 in water, 6 days; for number of vip-expressing neurons in PMp: castrated (CX) males
Description: as §1, §2, §3, §4

[3] = ovariectomized females, effect on the ovariectomy-induced increase
[4] = ovariectomized females, effect on the ovariectomy-induced reduction

Row | Structure (SMILES) | number of adcyap1-expressing neurons in PMp ([1]; fish 1 (Fig. 4d)) | number of adcyap1-expressing neurons in PMp ([1]; fish 3 (Fig. 4d)) | number of adcyap1-expressing neurons in PMp ([1]; fish 4 (Fig. 4d)) | number of adcyap1-expressing neurons in PMp ([1]; fish 5 (Fig. 4d)) | number of adcyap1-expressing neurons in PMp (in words) ([1]; castrated males) | number of adcyap1-expressing neurons in PMp (in words) [1, 3] | number of vip-expressing neurons in PMp ([2]; fish 1 (Fig. 4d)) | number of vip-expressing neurons in PMp ([2]; fish 2 (Fig. 4d)) | number of vip-expressing neurons in PMp ([2]; fish 3 (Fig. 4d)) | number of vip-expressing neurons in PMp ([2]; fish 4 (Fig. 4d)) | number of vip-expressing neurons in PMp ([2]; fish 5 (Fig. 4d)) | number of vip-expressing neurons in PMp (in words) ([2]; castrated males) | number of vip-expressing neurons in PMp (in words) [2, 4] | number of adcyap1-expressing neurons in PMp ([1]; fish 2 (Fig. 4d))
1 | C[C@]12CC[C@@H]3c4ccc(O)cc4CC[C@H]3[C@@H]1CC[C@@H]2O [E2, estradiol-17β] | 56.0 | 85.0 | 112.0 | 79.5 | significantly reduced adcyap1-expressing neurons | completely abolished | 260.0 | 388.5 | 363.0 | 447.0 | 311.0 | increased vip-expressing neurons | restored | 
2 | C[C@]12CC(=O)[C@H]3[C@@H](CCC4=CC(=O)CC[C@@]43C)[C@@H]1CC[C@@H]2O [KT, 11-ketotestosterone] | 198.0 | 273.5 | 161.5 | 147.0 | did not affect either of these neurons | had no such effect | 98.5 |  | 118.0 | 84.5 | 192.5 | did not affect either of these neurons | not KT treatment | 271.0

Source: publication PMC8352984, “Estrogen mediates sex differences in preoptic neuropeptide and pituitary hormone production in medaka” (Communications Biology, 2021)
